Experimental data from ChEMBL document CHEMBL1201862, “PubChem BioAssay data set” (2004).
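Results reflect a 48-hour exposure of cells in 96-well plates to compound at five concentrations. Abbreviation: GI50, concentration required for 50% inhibition of growth.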 Calls of active or inactive are those of the source. Rule as the data show it: active = GI50 up to about 1.1 µM and inactive = higher.

Assays:
Experiment in all cases: NCI-60 cell line screen, 48 h
[1] = system: HT-29
[2] = system: UACC-257
[3] = system: OVCAR-8
[4] = system: HL-60
[5] = system: MDA-MB-231
[6] = system: BT-549
[7] = system: UACC-62
[8] = system: CCRF-CEM
[9] = system: HCT-15
[10] = system: LOX IMVI
[11] = system: MOLT-4
[12] = system: SK-OV-3
[13] = system: UO-31
[14] = system: SK-MEL-5
[15] = system: K562
[16] = system: TK-10
[17] = system: SK-MEL-28
[18] = system: Malme-3M
[19] = system: DMS-114
[20] = system: M19-MEL

Compound	GI50 [1]	GI50 [2]	GI50 [3]	GI50 [4]	GI50 [5]	GI50 [6]	GI50 [7]	GI50 [8]	GI50 [9]	GI50 [10]	GI50 [11]	GI50 [12]	GI50 [13]	GI50 [14]	GI50 [15]	GI50 [16]	GI50 [17]	GI50 [18]	GI50 [19]	GI50 [20]
COC(=O)C1C(=O)C=CN([C@H](C)c2ccccc2)[C@@H]1Cc1ccc(OC)c(OCc2ccccc2)c1I (stereo not given in full)	10 µM (inactive)	18.2 µM (inactive)	18.3 µM (inactive)	17.3 µM (inactive)	18.3 µM (inactive)	18.3 µM (inactive)	12.3 µM (inactive)	24.5 µM (inactive)	7.1 µM	14.5 µM (inactive)	8.79 µM (inactive)	34 µM (inactive)	12 µM (inactive)	13.5 µM (inactive)	18.2 µM (inactive)	23.7 µM (inactive)	40.6 µM (inactive)	24.4 µM (inactive)	–	–
CSc1c(C)c(C)nn1-c1ccccc1	> 100 µM (inactive)	> 100 µM (inactive)	> 100 µM (inactive)	81.1 µM (inactive)	–	–	> 100 µM (inactive)	> 100 µM (inactive)	> 100 µM	> 100 µM (inactive)	> 100 µM (inactive)	> 100 µM (inactive)	> 100 µM (inactive)	> 100 µM (inactive)	> 100 µM (inactive)	> 100 µM (inactive)	> 100 µM (inactive)	> 100 µM (inactive)	> 100 µM (inactive)	–
O=C(Cc1nc2ccccc2s1)Nc1ccc(Cl)cc1	> 100 µM (inactive)	> 100 µM (inactive)	> 100 µM (inactive)	> 100 µM (inactive)	–	–	82.2 µM (inactive)	> 100 µM (inactive)	–	60.8 µM (inactive)	> 100 µM (inactive)	> 100 µM (inactive)	> 100 µM (inactive)	83.8 µM (inactive)	38.9 µM (inactive)	> 100 µM (inactive)	> 100 µM (inactive)	> 100 µM (inactive)	–	> 100 µM (inactive)
CC(C)/C(Cl)=N\OC(=O)Nc1ccc(F)c([N+](=O)[O-])c1	15.9 µM (inactive)	16.1 µM (inactive)	5.52 µM (inactive)	1.01 µM (active)	12.7 µM (inactive)	13.4 µM (inactive)	17.6 µM (inactive)	0.902 µM (active)	2.59 µM	4.54 µM (inactive)	1.57 µM (inactive)	19.1 µM (inactive)	6.56 µM (inactive)	8.43 µM (inactive)	2.87 µM (inactive)	6.22 µM (inactive)	12.6 µM (inactive)	1.16 µM (inactive)	–	–
O=c1cc2ccccc2nn1Cc1cccc(Cl)c1	> 100 µM (inactive)	> 100 µM (inactive)	73.3 µM (inactive)	–	–	–	> 100 µM (inactive)	71.1 µM (inactive)	99.5 µM	> 100 µM (inactive)	–	> 100 µM (inactive)	37.5 µM (inactive)	37.8 µM (inactive)	32.4 µM (inactive)	> 100 µM (inactive)	98.9 µM (inactive)	> 100 µM (inactive)	66.4 µM (inactive)	> 100 µM (inactive)
Cc1ccc(S(=O)(=O)C(CC(=O)N2CCCC2)C(=O)c2ccccc2)cc1 (stereo not given)	> 100 µM (inactive)	> 100 µM (inactive)	> 100 µM (inactive)	19.5 µM (inactive)	–	–	> 100 µM (inactive)	24.6 µM (inactive)	–	44.5 µM (inactive)	25.6 µM (inactive)	–	> 100 µM (inactive)	> 100 µM (inactive)	24.9 µM (inactive)	> 100 µM (inactive)	> 100 µM (inactive)	> 100 µM (inactive)	> 100 µM (inactive)	–
